Source: ChEMBL document CHEMBL1157050, “Synthesis and cytotoxic evaluation of N2-benzylated quaternary beta-carboline amino acid ester conjugates” (Eur J Med Chem, 2010)

What was measured:
Format in all cases: functional, cell-based
[1] = system: A-375; assay: Cytotoxicity against human A375 cells by MTT assay
[2] = system: 769-P; assay: Cytotoxicity against human 769-P cells by MTT assay
[3] = system: 786-0; assay: Cytotoxicity against human 786-0 cells by MTT assay
[4] = Cytotoxicity against human BGC cells by MTT assay
[5] = system: KB; assay: Cytotoxicity against human KB cells by MTT assay

Structure (SMILES)	IC50 [1] [µM]	IC50 [2] [µM]	IC50 [3] [µM]	IC50 [4] [µM]	IC50 [5] [µM]
CCCCn1c2ccccc2c2cc(C(=O)N[C@@H](Cc3ccc(O)cc3)C(=O)OC)ncc21	> 200	> 200	> 200	> 200	> 200
CCOC(=O)[C@H](CCSC)NC(=O)c1cc2c3ccccc3n(Cc3ccccc3)c2cn1	> 200	> 200	> 200	> 200	> 200
CCOC(=O)[C@H](Cc1ccccc1)NC(=O)c1cc2c3ccccc3n(Cc3ccccc3)c2cn1	> 200	> 200	> 200	> 200	> 200
CC(C)[C@H](NC(=O)c1cc2c3ccccc3n(CCCc3ccccc3)c2cn1)C(=O)O	58	78.3	84.6	139	106
CSCC[C@H](NC(=O)c1cc2c3ccccc3n(CCCc3ccccc3)c2cn1)C(=O)O	58.9	116	70	136	96.6
CCCCn1c2ccccc2c2cc(C(=O)N[C@@H](C)C(=O)OC)ncc21	> 200	27.2	> 200	> 200	> 200
CCCCn1c2ccccc2c2cc(C(=O)N[C@H](C(=O)OC)C(C)C)ncc21	> 200	> 200	> 200	> 200	> 200
COC(=O)[C@H](C)NC(=O)c1cc2c3ccccc3n(CCCc3ccccc3)c2cn1	> 200	> 200	> 200	148	> 200
CCOC(=O)[C@@H](NC(=O)c1cc2c3ccccc3n(CCCc3ccccc3)c2cn1)C(C)C	> 200	> 200	> 200	> 200	> 200
O=C(N[C@@H](Cc1ccccc1)C(=O)O)c1cc2c3ccccc3n(CCCc3ccccc3)c2cn1	33.8	8	52.7	76.1	38.8
CCCCn1c2ccccc2c2cc(C(=O)N[C@@H](Cc3ccccc3)C(=O)OCC)[n+](Cc3ccccc3)cc21	41.7	19.2	15	21.4	11.3
CCOC(=O)[C@H](Cc1ccccc1)NC(=O)c1cc2c3ccccc3n(Cc3ccccc3)c2c[n+]1Cc1ccccc1	25.8	13.5	69.4	92.5	51.4
CCOC(=O)[C@@H](NC(=O)c1cc2c3ccccc3n(CCCc3ccccc3)c2c[n+]1Cc1ccccc1)C(C)C	10.4	14	4	17.8	12.5
CCOC(=O)[C@H](CCSC)NC(=O)c1cc2c3ccccc3n(CCCc3ccccc3)c2c[n+]1Cc1ccccc1	7.3	7.6	10.1	12	9.4
CCOC(=O)[C@H](Cc1ccccc1)NC(=O)c1cc2c3ccccc3n(CCCc3ccccc3)c2c[n+]1Cc1ccccc1	21.3	22.9	23.4	23.7	18.2
CCCCn1c2ccccc2c2cc(C(=O)N[C@H](C(=O)OCC)C(C)C)[n+](Cc3ccccc3)cc21	22.5	13.7	14.4	44.2	28.4

Structure (SMILES)	IC50 [1] [µM]	IC50 [2] [µM]	IC50 [3] [µM]	IC50 [4] [µM]	IC50 [5] [µM]
CCCCn1c2ccccc2c2cc(C(=O)N[C@@H](CCSC)C(=O)OCC)[n+](Cc3ccccc3)cc21	8.2	7.5	1.7	13.4	10.8
CCOC(=O)[C@@H](NC(=O)c1cc2c3ccccc3n(Cc3ccccc3)c2c[n+]1Cc1ccccc1)C(C)C	15.8	12.5	10.8	21.9	25.3
CCCCn1c2ccccc2c2cc(C(=O)N[C@@H](CCSC)C(=O)O)ncc21	> 200	105	> 200	> 200	> 200
CCCCn1c2ccccc2c2cc(C(=O)N[C@@H](Cc3ccccc3)C(=O)O)ncc21	160	114	191	> 200	155
CCCCn1c2ccccc2c2cc(C(=O)N[C@@H](Cc3ccc(O)cc3)C(=O)O)ncc21	121	> 200	> 200	> 200	> 200
CSCC[C@H](NC(=O)c1cc2c3ccccc3n(Cc3ccccc3)c2cn1)C(=O)O	156	145	> 200	> 200	135
CCCCn1c2ccccc2c2cc(C(=O)N[C@@H](CCSC)C(=O)OCC)ncc21	> 200	> 200	> 200	> 200	> 200
CCCCn1c2ccccc2c2cc(C(=O)N[C@@H](Cc3ccccc3)C(=O)OC)ncc21	> 200	> 200	> 200	> 200	> 200
CCCCn1c2ccccc2c2cc(C(=O)N[C@@H](CCSC)C(=O)OCC)nc(C)c21	> 200	> 200	> 200	> 200	> 200
CCCCn1c2ccccc2c2cc(C(=O)N[C@@H](Cc3ccccc3)C(=O)OCC)nc(C)c21	> 200	> 200	> 200	> 200	> 200
C[C@H](NC(=O)c1cc2c3ccccc3n(CCCc3ccccc3)c2cn1)C(=O)O	96.3	120	78.3	162	179
CCOC(=O)[C@H](CCSC)NC(=O)c1cc2c3ccccc3n(CCCc3ccccc3)c2cn1	> 200	> 200	> 200	> 200	176
CCOC(=O)[C@H](Cc1ccccc1)NC(=O)c1cc2c3ccccc3n(CCCc3ccccc3)c2cn1	> 200	187	> 200	> 200	89.2
CCCCn1c2ccccc2c2cc(C(=O)N[C@@H](Cc3ccccc3)C(=O)OCC)ncc21	> 200	32.5	> 200	> 200	113
CC(=O)O[C@H]1C(=O)[C@@]2(C)[C@H]([C@H](OC(=O)c3ccccc3)[C@]3(O)C[C@H](OC(=O)[C@H](O)[C@@H](NC(=O)c4ccccc4)c4ccccc4)C(C)=C1C3(C)C)[C@]1(OC(C)=O)CO[C@@H]1C[C@@H]2O [PACLITAXEL]	0.81	7.1	< 0.08	1.5	0.08
